The structures appear in SMILES notation. Values after ≈ are worked out from the molar mass of the structure shown. Values joined by “and” are separate entries in the source; they are usually repeats but may differ in a detail not shown here. Equal values may be shown once. Some results are limits rather than exact numbers.

Some test systems named below: Escherichia coli C600; Candida albicans; Escherichia coli 1005.
Assay in all cases: ≥ marks a high value that may be exact or a test limit, other limits are often not marked, values filed in µg/mL are converted to µM
The subject of assay [1] is Bacillus subtilis VKM B-501.
The test system of assay [2] is Staphylococcus aureus 209P.
The test system of assay [3] is Batrachochytrium dendrobatidis.
The subject of assay [4] is Pseudomonas aeruginosa ATCC 13388.
In assay [5] the test system is Enterococcus faecium CCT 5079.
The test system of assay [6] is Staphylococcus epidermidis ATCC 12228.
Assay [7] has as its system Bacillus cereus ATCC 11778.
Assay [8] has as its system Enterococcus hirae ATCC 10541.
The subject of assay [9] is Bacillus thuringiensis ATCC 10792.
For assay [10], the system named is Pseudomonas aeruginosa ATCC 15422.
Assay [11] deals with Staphylococcus aureus CCT 6538.
Assay [12] has as its system Streptococcus mutans AU159.
Assay [13] deals with Salmonella enterica subsp. enterica serovar Typhimurium ATCC 14028.
The subject of assay [14] is Escherichia coli ATCC 25922.
The subject of assay [15] is Escherichia coli CCT 1457.
Assay [16] relates to Staphylococcus aureus ATCC 25923.
Assay [17] concerns Micrococcus luteus ATCC 4698.
In assay [18] the test system is Streptococcus pneumoniae ATCC 11733.
Assay [19] relates to Salmonella enterica subsp. enterica serovar Choleraesuis ATCC 10708.
In assay [20] the test system is Staphylococcus aureus CCT 2580.
Assay [21] concerns Escherichia coli ATCC 11775.
Assay [22] deals with Candida albicans ATCC 90028.
Assay [23] relates to Candida parapsilosis CGMCC 2.3989.
In assay [24] the test system is Candida albicans CGMCC 2.2086.
The subject of assay [25] is Candida krusei CGMCC 2.1857.
In assay [26] the test system is Staphylococcus aureus ATCC 29213.
For assay [27], the system named is Staphylococcus aureus ATCC 43300.
For assay [28], the system named is Salmonella enterica subsp. enterica serovar Pullorum ATCC 7913.
Assay [29] relates to Candida tropicalis CGMCC 2.1975.

What is called MIC is the lowest concentration that inhibits growth of the organism. As for `CC(C)C[C@H](NC(=O)[C@H](CCCN=C(N)N)NC(=O)[C@H](CCCCN)NC(=O)[C@H](CCCCN)NC(=O)[C@H](CC(C)C)NC(=O)[C@H](CC(N)=O)NC(=O)[C@H](C)NC(=O)[C@H](Cc1ccccc1)NC(=O)[C@H](CCCN=C(N)N)NC(=O)[C@H](CCCN=C(N)N)NC(=O)[C@H](CCCCN)NC(=O)[C@H](Cc1ccccc1)NC(=O)[C@H](CO)NC(=O)[C@H](C)NC(=O)CNC(=O)[C@H](Cc1ccccc1)NC(=O)[C@H](CCCCN)NC(=O)[C@H](CCCCN)NC(=O)[C@H](Cc1ccccc1)NC(=O)[C@H](Cc1ccc(O)cc1)NC(=O)[C@H](CCC(=O)O)NC(=O)[C@H](CCCCN)NC(=O)[C@H](CCCN=C(N)N)NC(=O)[C@H](CCCCN)NC(=O)CNC(=O)[C@H](Cc1ccccc1)NC(=O)[C@H](Cc1ccccc1)NC(=O)CN)C(N)=O` [GFFGKRKEYFKKFGASFKRRFANLKKRL], the minimum inhibitory concentration (MIC) in assay [1] stood at 0.7 µM (≈ 2.42 µg/mL); against Escherichia coli C600 it was 1.5 µM (≈ 5.18 µg/mL); in assay [2] it was 6 µM (≈ 20.7 µg/mL).
Regarding `CC[C@H](C)[C@H](NC(=O)[C@H](C)NC(=O)[C@H](CCCCN)NC(=O)[C@H](CCCN=C(N)N)NC(=O)CNC(=O)[C@H](Cc1ccccc1)NC(=O)[C@H](CCCCN)NC(=O)[C@H](CCCCN)NC(=O)[C@H](CCC(N)=O)NC(=O)[C@H](CC(C)C)NC(=O)[C@H](CCCCN)NC(=O)CNC(=O)[C@H](Cc1ccccc1)NC(=O)[C@H](CC(C)C)NC(=O)CN)C(=O)N[C@@H](CO)C(=O)N[C@@H](Cc1ccc(O)cc1)C(=O)N[C@@H](C)C(=O)N[C@H](C(=O)N[C@@H](CCCCN)C(=O)N[C@@H](CCCCN)C(=O)N[C@@H](C)C(=O)N[C@@H](CCCN=C(N)N)C(=O)NCC(=O)N[C@@H](CCCCN)C(=O)N[C@@H](Cc1cnc[nH]1)C(=O)O)C(C)C` [GLFGKLQKKFGRKAISYAVKKARGKH], the MIC is 1.5 µM (≈ 4.38 µg/mL) in assay [1], 6 µM (≈ 17.5 µg/mL) in the assay on Escherichia coli C600 and ≥ 36 µM in assay [2].
As to `CC(C)C[C@H](NC(=O)CN)C(=O)N[C@@H](CC(C)C)C(=O)N[C@@H](C)C(=O)N[C@@H](CO)C(=O)N[C@@H](CC(C)C)C(=O)NCC(=O)N[C@@H](CCCCN)C(=O)N[C@H](C(=O)N[C@@H](Cc1ccccc1)C(=O)NCC(=O)NCC(=O)N[C@@H](Cc1ccc(O)cc1)C(=O)N[C@@H](CC(C)C)C(=O)N[C@@H](C)C(=O)N[C@@H](CCC(=O)O)C(=O)N[C@@H](CCCCN)C(=O)N[C@@H](CC(C)C)C(=O)N[C@@H](CCCCN)C(=O)N1CCC[C@H]1C(=O)N[C@@H](CCCCN)C(=O)O)C(C)C` [GLLASLGKVFGGYLAEKLKPK], the MIC in [3] is ≥ 200 µM.
With `CC[C@H](C)[C@H](N)C(=O)N[C@@H](CC(N)=O)C(=O)N[C@@H](Cc1c[nH]c2ccccc12)C(=O)N[C@@H](CCCCN)C(=O)N[C@@H](CCCCN)C(=O)N[C@H](C(=O)N[C@@H](CCCCN)C(=O)N[C@@H](CCCCN)C(=O)N[C@@H](CCCCN)C(=O)N[C@H](C(=O)N[C@@H](C)C(=O)NCC(=O)N[C@@H](CCSC)C(=O)N[C@@H](CC(C)C)C(N)=O)C(C)C)[C@@H](C)CC` [INWKKIKKKVAGML], the minimal inhibitory concentration (MIC) is 2.41 µM (≈ 4 µg/mL) in assay [4]; 1.21 µM (≈ 2 µg/mL) in assay [5]; 0.604 µM (≈ 0.999 µg/mL) in assay [6]; 18.7 µM (≈ 31 µg/mL) in assay [7]; 18.7 µM (≈ 31 µg/mL) in assay [8]; 18.7 µM (≈ 31 µg/mL) in [9]. The MIC in assay [10] amounted to 4.83 µM (≈ 8 µg/mL); in assay [11], 2.41 µM (≈ 4 µg/mL); in assay [12], 2.41 µM (≈ 4 µg/mL); in assay [13], 2.41 µM (≈ 4 µg/mL); in assay [14] it was 9.66 µM (≈ 16 µg/mL); in assay [15], 2.41 µM (≈ 4 µg/mL). Moreover, the MIC in assay [16] turned out to be 1.21 µM (≈ 2 µg/mL); in [17], 0.604 µM (≈ 0.999 µg/mL); in [18], 0.604 µM (≈ 0.999 µg/mL); in assay [19] it was 18.7 µM (≈ 31 µg/mL); in [20], 1.21 µM (≈ 2 µg/mL); in assay [21], 2.41 µM (≈ 4 µg/mL).
On to `CC[C@H](C)[C@H](N)C(=O)N[C@@H](CC(N)=O)C(=O)N[C@@H](Cc1c[nH]c2ccccc12)C(=O)N[C@@H](CC(C)C)C(=O)N[C@@H](CCCCN)C(=O)N[C@H](C(=O)N[C@@H](CCCCN)C(=O)N[C@@H](CCCCN)C(=O)N[C@@H](CCCCN)C(=O)N[C@H](C(=O)N[C@@H](C)C(=O)NCC(=O)N[C@@H](CCSC)C(=O)N[C@@H](CC(C)C)C(N)=O)C(C)C)[C@@H](C)CC` [INWLKIKKKVAGML], for which the MIC was ≥ 152 µM in assay [4]; 4.87 µM (≈ 8 µg/mL) in [5]; 2.44 µM (≈ 4 µg/mL) in assay [6]; ≥ 152 µM in [7]; ≥ 38.1 µM in [22]; 18.9 µM (≈ 31 µg/mL) in [8]. The MIC in assay [9] was ≥ 76.1 µM; in assay [10] it was ≥ 76.1 µM; in [11], 18.9 µM (≈ 31 µg/mL); in assay [12] it was 2.44 µM (≈ 4 µg/mL); in assay [13], 18.9 µM (≈ 31 µg/mL); in assay [14] it was 18.9 µM (≈ 31 µg/mL). Further, the MIC in [15] was 4.87 µM (≈ 8 µg/mL); in [16], 1.22 µM (≈ 2 µg/mL); in assay [17], 2.44 µM (≈ 4 µg/mL); in assay [18], 1.22 µM (≈ 2 µg/mL); in assay [19] it was ≥ 304 µM; in [20], 4.87 µM (≈ 8 µg/mL). In [21], the MIC amounted to 18.9 µM (≈ 31 µg/mL).
For the compound `CC[C@H](C)[C@H](NC(=O)[C@H](CC(C)C)NC(=O)[C@@H]1CCCN1C(=O)[C@H](CC(C)C)NC(=O)[C@H](CCCCN)NC(=O)[C@H](CCCCN)NC(=O)[C@H](Cc1ccccc1)NC(=O)[C@H](CC(C)C)NC(=O)[C@H](CCCCN)NC(=O)[C@H](Cc1c[nH]c2ccccc12)NC(=O)[C@@H](N)CCCCN)C(=O)NCC(=O)N[C@@H](CCCN=C(N)N)C(=O)N[C@H](C(=O)N[C@@H](CC(C)C)C(N)=O)C(C)C` [KWKLFKKLPLIGRVL], the MIC in assay [3] is ≥ 100 µM.
On to `NC(=O)[C@H](CCCN=C(N)N)NC(=O)[C@H](CCCN=C(N)N)NC(=O)[C@H](Cc1c[nH]c2ccccc12)NC(=O)[C@H](CCCN=C(N)N)NC(=O)[C@H](Cc1c[nH]c2ccccc12)NC(=O)[C@H](Cc1c[nH]c2ccccc12)NC(=O)[C@H](Cc1c[nH]c2ccccc12)NC(=O)[C@H](CCCN=C(N)N)NC(=O)[C@H](Cc1c[nH]c2ccccc12)NC(=O)[C@H](CCCN=C(N)N)NC(=O)[C@@H](N)CCCN=C(N)N` [RRWRWWWRWRR], for which the MIC in [6] is 4 µM (≈ 7.54 µg/mL); in the assay on Candida albicans, 4 µM (≈ 7.54 µg/mL); in the assay on Escherichia coli 1005, 4 µM (≈ 7.54 µg/mL); in [13], 4 µM (≈ 7.54 µg/mL); in assay [23] it was 8 µM (≈ 15.1 µg/mL); in [24] it was 4 µM and 8 µM. The MIC in [25] came out at 2 µM (≈ 3.77 µg/mL); in [16], 4 µM (≈ 7.54 µg/mL); in [26] it was 2 µM (≈ 3.77 µg/mL); in [27] it was 4 µM (≈ 7.54 µg/mL); in assay [28], 2 µM (≈ 3.77 µg/mL); in assay [29], 2 µM (≈ 3.77 µg/mL).
